This note sets out measurements from ChEMBL document CHEMBL4184111, “Small molecule immuno-oncology therapeutic agents” (Bioorg Med Chem Lett, 2018).

Some results are limits rather than exact numbers.

For series [1], the target named is T1, Arginase-2, mitochondrial (Homo sapiens, UniProt P78540).
T1 sequence (P78540 whole entry): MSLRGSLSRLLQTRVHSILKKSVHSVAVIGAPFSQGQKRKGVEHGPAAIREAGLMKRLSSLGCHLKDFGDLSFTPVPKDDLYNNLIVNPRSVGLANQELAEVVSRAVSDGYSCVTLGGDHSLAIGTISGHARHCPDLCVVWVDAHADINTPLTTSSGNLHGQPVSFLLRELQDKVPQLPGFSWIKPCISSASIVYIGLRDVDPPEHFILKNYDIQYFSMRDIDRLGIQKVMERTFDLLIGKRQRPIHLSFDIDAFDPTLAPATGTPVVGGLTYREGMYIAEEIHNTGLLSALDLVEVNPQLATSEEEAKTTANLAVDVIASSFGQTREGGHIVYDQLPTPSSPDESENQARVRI
As to the kind of experiment: Inhibition of arginase 2 (unknown origin).

Series [2] is described as follows: Half life in rat. The format is ADME, organism-based. As to conditions: in vivo.
Series [3] has as its target Programmed cell death protein 1 (Homo sapiens, UniProt Q15116). Kind of series: Inhibition of His-tagged PD-L1 binding to PD-1-Ig (unknown origin) preincubated with PD-L1 for 15 mins followed by PD-1-Ig addition measured after 15 mins by HTRF binding assay. On the technique in general: TR-FRET usually uses a lanthanide donor and a delayed reading to cut background.
The target of series [4] is Mitogen-activated protein kinase kinase kinase kinase 1 (Homo sapiens, UniProt Q92918). Kind of series: Inhibition of N-terminal GST-tagged human HPK1 (1 to 346 residues) after 30 mins in presence of ATP by indirect ELISA.
The nature of series [5]: Inhibition of arginase (unknown origin). The arrangement: species or system Homo sapiens.
Another series concerns the target eIF-2-alpha kinase GCN2 (Homo sapiens, UniProt Q9P2K8). Kind of series: Inhibition of GCN2 (unknown origin) using GFP--fused eIF2alpha as substrate preincubated for 20 mins followed by substrate and ATP addition measured after 90 mins by TR-FRET assay.
Series [6] has as its target Tyrosine-protein kinase SYK (Homo sapiens, UniProt P43405). Kind of series: Inhibition of N-terminal GST-tagged human SYK expressed in baculovirus infected Sf9 insect cells using Biotin-Aha-Aha-KEDPDYEWPSAKK as substrate after 90 mins by flash plate assay.

Sequence of Programmed cell death protein 1 (Q15116 whole entry, the tested form may be a part): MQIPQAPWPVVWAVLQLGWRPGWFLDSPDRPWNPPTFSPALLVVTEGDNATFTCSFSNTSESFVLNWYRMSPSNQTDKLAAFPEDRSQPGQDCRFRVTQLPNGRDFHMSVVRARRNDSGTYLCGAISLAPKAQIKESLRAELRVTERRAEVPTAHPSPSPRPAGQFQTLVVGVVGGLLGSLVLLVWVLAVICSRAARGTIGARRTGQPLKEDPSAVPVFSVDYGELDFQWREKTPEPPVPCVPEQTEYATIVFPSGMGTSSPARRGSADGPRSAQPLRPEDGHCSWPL
Sequence of Mitogen-activated protein kinase kinase kinase kinase 1 (Q92918 whole entry, the tested form may be a part): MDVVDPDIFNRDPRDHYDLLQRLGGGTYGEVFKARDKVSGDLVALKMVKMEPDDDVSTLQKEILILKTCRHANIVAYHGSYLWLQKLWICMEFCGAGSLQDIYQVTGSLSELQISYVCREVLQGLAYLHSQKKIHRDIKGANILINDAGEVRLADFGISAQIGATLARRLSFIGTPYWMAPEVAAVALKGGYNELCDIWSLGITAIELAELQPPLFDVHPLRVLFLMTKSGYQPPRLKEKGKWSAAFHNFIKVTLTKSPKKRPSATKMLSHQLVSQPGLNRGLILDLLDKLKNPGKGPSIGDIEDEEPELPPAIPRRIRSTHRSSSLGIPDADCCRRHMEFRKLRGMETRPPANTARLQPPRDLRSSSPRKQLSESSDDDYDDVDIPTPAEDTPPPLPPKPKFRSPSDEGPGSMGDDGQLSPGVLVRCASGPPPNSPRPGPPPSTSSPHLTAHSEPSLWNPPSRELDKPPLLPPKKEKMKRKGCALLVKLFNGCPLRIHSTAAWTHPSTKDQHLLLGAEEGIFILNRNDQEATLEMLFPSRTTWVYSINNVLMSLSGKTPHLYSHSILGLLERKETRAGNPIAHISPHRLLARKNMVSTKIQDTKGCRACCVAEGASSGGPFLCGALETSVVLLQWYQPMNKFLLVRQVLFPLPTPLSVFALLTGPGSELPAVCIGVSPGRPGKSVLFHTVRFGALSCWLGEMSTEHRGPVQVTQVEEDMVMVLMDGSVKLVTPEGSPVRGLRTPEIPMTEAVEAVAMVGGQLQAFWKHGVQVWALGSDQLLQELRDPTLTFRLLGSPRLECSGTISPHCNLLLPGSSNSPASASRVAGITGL
Sequence of eIF-2-alpha kinase GCN2 (Q9P2K8 whole entry, the tested form may be a part): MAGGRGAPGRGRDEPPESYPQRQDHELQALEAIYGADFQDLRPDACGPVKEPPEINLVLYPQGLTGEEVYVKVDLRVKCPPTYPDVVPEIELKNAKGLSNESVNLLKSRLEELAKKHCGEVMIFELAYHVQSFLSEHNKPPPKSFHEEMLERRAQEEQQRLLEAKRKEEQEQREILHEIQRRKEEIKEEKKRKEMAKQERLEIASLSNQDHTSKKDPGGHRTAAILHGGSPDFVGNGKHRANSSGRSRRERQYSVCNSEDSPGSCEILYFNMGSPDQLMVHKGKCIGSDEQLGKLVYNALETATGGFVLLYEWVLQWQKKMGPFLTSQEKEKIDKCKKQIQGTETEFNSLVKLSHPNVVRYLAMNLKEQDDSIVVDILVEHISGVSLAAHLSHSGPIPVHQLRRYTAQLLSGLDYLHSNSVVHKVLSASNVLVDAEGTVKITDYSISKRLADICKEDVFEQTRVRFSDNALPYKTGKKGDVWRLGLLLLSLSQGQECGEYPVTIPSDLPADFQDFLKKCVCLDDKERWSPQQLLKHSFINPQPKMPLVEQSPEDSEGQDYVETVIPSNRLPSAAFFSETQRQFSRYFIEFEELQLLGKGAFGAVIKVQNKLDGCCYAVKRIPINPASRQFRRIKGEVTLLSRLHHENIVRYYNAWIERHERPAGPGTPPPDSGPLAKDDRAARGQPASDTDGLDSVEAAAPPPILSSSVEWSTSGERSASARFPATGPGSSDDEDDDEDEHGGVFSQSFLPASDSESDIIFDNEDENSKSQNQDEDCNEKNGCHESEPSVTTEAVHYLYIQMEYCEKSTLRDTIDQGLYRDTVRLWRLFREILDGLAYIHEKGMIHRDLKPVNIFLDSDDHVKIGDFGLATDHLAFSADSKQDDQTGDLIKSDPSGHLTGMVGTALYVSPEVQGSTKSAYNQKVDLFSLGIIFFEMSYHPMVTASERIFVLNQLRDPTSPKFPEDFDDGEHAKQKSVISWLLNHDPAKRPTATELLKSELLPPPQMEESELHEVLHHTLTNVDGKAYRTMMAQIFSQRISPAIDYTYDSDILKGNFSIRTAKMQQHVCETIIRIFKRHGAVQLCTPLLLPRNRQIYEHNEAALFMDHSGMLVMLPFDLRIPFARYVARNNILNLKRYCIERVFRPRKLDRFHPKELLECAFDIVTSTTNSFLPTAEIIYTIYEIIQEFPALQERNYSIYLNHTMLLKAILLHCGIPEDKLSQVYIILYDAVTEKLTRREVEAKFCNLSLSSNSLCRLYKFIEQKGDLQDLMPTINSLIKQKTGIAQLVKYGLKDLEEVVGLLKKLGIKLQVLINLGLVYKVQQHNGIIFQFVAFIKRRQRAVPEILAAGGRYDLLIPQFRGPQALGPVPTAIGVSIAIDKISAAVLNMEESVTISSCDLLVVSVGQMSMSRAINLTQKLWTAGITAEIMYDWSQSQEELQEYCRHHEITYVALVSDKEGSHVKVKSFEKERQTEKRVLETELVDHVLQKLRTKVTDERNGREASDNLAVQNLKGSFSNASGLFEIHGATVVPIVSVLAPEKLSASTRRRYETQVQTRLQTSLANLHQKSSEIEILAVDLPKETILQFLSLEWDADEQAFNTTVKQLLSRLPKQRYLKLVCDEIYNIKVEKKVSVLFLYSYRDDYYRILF

Compound `N=C(NO)NCC[C@H](N)C(=O)O` [NOR-NOHA] gave a Ki in series [1] of 51 nM. In series [2], this compound yielded a half-life of 15 to 30 min.

As for `COc1cc(OCc2cccc(-c3ccccc3)c2C)cc(OC)c1CNCC1CC(=O)N1` (stereo not given), the IC50 in series [3] was less than 50 nM.

As for `CN1CCN(c2ccc3[nH]c(-c4c(N)c5ccsc5[nH]c4=O)nc3c2)CC1`, in series [4], the IC50 was less than 50 nM.

Turning to `CN1CCN(c2ccc3nc(-c4c(N)c5sccc5[nH]c4=O)[nH]c3c2)CC1`, the IC50 in series [4] was less than 50 nM.

With `C[C@H](N)C(=O)N1C[C@H](CCCB(O)O)[C@](N)(C(=O)O)C1`, the midpoint of inhibition in series [5], the IC50, lay at 98 nM.

Consider `CC(C)C1(O)C(=O)Nc2cc(Nc3nc4c(-c5cnn(C)c5)nccn4n3)ccc21` (stereo not given), for which the IC50 lay in the range of 300 to 3000 nM at eIF-2-alpha kinase GCN2 and 100 to 300 nM in series [6].

`C[C@H](O)[C@H](NC(=O)N[C@@H](CC(N)=O)c1nnc([C@@H](N)CO)s1)C(=O)O` registered a concentration for half-maximal inhibition (IC50) in series [3] of less than 50 nM.

Take `O[C@H]1CC[C@H](n2cc(Nc3ncc4nnn(-c5ccc(Cl)c(F)c5)c4n3)cn2)CC1`: the IC50 against eIF-2-alpha kinase GCN2 was less than 300 nM.

Broadly, the Ki is a measure of affinity in units of concentration, obtained from inhibition or displacement. In general, half-life refers to how long it takes for the measured level to halve. A low value points to fast loss. In general, IC50 refers to the concentration that gives 50% inhibition.
